The EC50 is the midpoint of the concentration-response curve. Usually IC50 stands for the concentration needed to halve the response being measured. Broadly, the AC50 is the concentration at which the activity in the assay is half-maximal.

Active and inactive are the calls of the source.

Six molecules from ChEMBL document CHEMBL1201862, “PubChem BioAssay data set” (2004) can be followed below.

In test [1] the test system is HEK293. Kind of test: optical interference in Abeta FP readout, dose response, artefact control for IDE activator project, biochemical, fluorescence polarization (AID 588442). The settings on record: Homo sapiens. It counts as functional, cell-based. (Fluorescence polarisation rises when a labelled molecule tumbles more slowly, as on binding a larger partner.)
Test [2] addresses T1, Insulin-degrading enzyme (Homo sapiens, UniProt P14735).
T1 sequence (P14735 whole entry): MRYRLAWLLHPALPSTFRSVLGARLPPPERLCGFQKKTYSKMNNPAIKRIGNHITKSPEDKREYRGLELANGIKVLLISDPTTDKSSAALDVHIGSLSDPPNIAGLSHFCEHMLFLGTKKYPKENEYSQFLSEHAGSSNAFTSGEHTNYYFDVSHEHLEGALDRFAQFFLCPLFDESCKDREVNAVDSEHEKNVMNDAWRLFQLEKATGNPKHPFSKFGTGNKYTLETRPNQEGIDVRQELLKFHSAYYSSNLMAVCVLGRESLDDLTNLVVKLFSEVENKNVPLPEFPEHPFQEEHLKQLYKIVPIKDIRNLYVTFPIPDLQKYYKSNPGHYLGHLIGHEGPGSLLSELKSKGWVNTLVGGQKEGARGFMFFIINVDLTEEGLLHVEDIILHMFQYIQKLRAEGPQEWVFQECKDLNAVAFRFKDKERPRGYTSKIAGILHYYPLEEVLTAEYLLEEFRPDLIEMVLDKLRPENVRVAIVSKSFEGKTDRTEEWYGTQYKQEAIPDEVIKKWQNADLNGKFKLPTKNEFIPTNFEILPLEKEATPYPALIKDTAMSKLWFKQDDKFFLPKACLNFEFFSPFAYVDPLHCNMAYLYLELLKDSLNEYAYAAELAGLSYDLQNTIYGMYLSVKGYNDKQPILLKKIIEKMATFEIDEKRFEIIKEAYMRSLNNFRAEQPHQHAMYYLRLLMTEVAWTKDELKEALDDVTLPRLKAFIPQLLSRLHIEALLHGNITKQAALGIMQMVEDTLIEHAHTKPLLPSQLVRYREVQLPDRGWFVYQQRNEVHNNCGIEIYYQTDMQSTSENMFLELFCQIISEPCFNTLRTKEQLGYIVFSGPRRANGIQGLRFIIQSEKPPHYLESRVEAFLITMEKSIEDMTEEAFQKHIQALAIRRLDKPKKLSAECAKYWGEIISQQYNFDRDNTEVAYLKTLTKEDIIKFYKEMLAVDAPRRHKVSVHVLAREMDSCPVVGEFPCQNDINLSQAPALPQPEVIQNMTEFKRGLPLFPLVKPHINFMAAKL
Kind of test: recombinant IDE activation, cell-free – biochemical, fluorescence polarization, counter-screen for IDE activator project, dose response (AID 588681).

Test [3] has as its target T1, Insulin-degrading enzyme. Kind of test: cellular IDE activation of Abeta substrate cleavage – fluorescence polarization, HEK cells, dose response (AID 588439). Type of test: functional, cell-based.
Test [4] deals with HEK293. Kind of test: membrane integrity loss in HEK cells – cell-based, fluorescence, cytotoxicity control for IDE activator project, dose response (AID 588440).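 Further: cytotoxicity by LDH release measuring loss of membrane integrity.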 The settings on record: Homo sapiens. It counts as functional.
In test [5] the target is T2, Ubiquitin-conjugating enzyme E2 N (Homo sapiens, UniProt P61088).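 Further: Dose-response confirmation in a TR-FRET assay detecting UBC13-driven polyubiquitin chain formation, inhibition measured.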
T2 sequence (P61088 whole entry): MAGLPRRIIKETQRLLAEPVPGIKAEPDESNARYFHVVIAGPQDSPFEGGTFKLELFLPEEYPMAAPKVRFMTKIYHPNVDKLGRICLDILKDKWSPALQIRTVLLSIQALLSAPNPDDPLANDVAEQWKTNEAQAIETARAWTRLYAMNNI
It counts as functional.

The test system of another test is INS1. Kind of test: INS-1E survival protection against cytokine death – cell-based, luminescence, retest, dose response (AID 449756).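 Further: cell death triggered by IL-1 beta plus TNF-alpha plus IFN-gamma mixture; protective hits raise ATP signal compared with cytokine alone wells.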 The settings on record: Rattus norvegicus. It counts as functional.
A further test concerns the target T3, Streptokinase A (Streptococcus pyogenes serotype M1, UniProt P10520).
T3 sequence (P10520 whole entry): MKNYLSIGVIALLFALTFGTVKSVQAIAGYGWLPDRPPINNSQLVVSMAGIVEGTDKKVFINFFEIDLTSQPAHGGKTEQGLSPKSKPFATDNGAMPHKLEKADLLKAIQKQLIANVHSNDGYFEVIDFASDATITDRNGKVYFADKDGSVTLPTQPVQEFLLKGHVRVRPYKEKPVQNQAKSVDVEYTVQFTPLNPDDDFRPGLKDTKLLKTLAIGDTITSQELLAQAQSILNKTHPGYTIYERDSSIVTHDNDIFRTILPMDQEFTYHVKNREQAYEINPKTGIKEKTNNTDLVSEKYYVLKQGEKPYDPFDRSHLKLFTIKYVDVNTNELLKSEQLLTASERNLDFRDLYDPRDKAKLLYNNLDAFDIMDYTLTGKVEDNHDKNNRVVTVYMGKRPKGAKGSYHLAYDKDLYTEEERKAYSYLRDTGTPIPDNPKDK
Kind of test: viability-normalized secreted streptokinase activity reduction – plasminogen activation absorbance, OD405, dose response (AID 1914).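 Further: secreted streptokinase activity via plasminogen activation per viability signal from cell pellet.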 It counts as functional, Streptococcus pyogenes M1 GAS.

Test [6] deals with Streptococcus sp. 'group A'. Kind of test: Streptococcus pyogenes SK(-)GAS viability under kanamycin – luminescence, BacTiterGlo, confirmation, counter-screen for streptokinase expression inhibitor project, dose response (AID 1900). It counts as functional, organism-based.
In another test the test system is Streptococcus. Kind of test: GAS UMAA2166 growth inhibition – luminescence, BacTiterGlo, counter-screen for streptokinase expression inhibitor project, dose response (AID 1915).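 Further: potency for reduction of bacterial viability or growth.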 It counts as functional, organism-based. In general terms: Counterscreens check selectivity or assay interference.
Another test is described as follows: cells. It counts as functional.
Test [7] concerns the target T4, Zinc finger protein mex-5 (Caenorhabditis elegans, UniProt Q9XUB2).
T4 sequence (Q9XUB2 whole entry): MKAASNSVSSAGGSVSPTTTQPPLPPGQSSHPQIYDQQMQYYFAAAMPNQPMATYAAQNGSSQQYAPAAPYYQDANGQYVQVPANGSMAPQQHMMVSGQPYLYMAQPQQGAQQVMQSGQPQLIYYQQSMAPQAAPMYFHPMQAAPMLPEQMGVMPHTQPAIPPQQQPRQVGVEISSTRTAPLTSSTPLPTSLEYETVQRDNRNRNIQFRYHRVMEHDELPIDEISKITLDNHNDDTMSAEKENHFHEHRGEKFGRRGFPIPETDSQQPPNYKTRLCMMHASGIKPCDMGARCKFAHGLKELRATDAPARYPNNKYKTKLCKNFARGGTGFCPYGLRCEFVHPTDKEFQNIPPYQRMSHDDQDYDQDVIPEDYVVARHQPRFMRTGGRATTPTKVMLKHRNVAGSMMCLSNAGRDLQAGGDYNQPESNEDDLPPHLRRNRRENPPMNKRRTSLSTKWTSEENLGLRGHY
Kind of test: potency of MEX-5 RNA-binding blockers – biochemical, C. elegans, fluorescence polarization, dose response (AID 1960).

Test [8] deals with T5, RNA-binding protein pos-1 (Caenorhabditis elegans, UniProt G5EF15).
T5 sequence (G5EF15 whole entry): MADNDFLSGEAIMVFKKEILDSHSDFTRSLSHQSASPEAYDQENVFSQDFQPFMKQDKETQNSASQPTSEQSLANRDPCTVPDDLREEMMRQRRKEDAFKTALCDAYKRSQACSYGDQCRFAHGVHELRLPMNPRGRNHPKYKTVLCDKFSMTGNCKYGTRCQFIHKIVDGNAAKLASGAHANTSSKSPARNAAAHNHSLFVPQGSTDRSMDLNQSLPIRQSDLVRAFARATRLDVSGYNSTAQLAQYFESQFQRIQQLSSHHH
Kind of test: disruptors of C. elegans POS-1 RNA interaction – biochemical, fluorescence polarization, dose response (AID 1964).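 Further: purified POS-1 fused to maltose binding protein made in E. coli; potency of compounds blocking POS-1 binding to fluorescent RNA.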

Test [9] has as its target T6, Endoribonuclease toxin MazF (Escherichia coli K-12, UniProt P0AE70).
T6 sequence (P0AE70 whole entry): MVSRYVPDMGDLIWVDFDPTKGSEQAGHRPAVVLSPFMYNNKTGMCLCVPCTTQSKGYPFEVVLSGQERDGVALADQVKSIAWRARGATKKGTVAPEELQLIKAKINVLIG
Kind of test: activation of MazEF endoribonuclease cleavage – biochemical, fluorescence, single-stranded RNA substrate, uHTS hits, dose response (AID 588481). Type of test: functional.

Test [10] deals with T6, Endoribonuclease toxin MazF. Kind of test: substrate-only fluorescence increase artefacts – biochemical, single-stranded RNase substrate, counter-screen for MazEF activator project, dose response (AID 588502). It counts as functional.

As for `O=C(c1ccccc1)N1CCN(c2ccc([N+](=O)[O-])c(NCc3cccnc3)c2)CC1`, the EC50 in the test with HEK293 [1], on Insulin-degrading enzyme [2] and on Insulin-degrading enzyme [3] was > 54.7 µM (inactive) each time. The IC50 with HEK293 [4] is > 89.2 µM (inactive).

For the molecule `COC(=O)C1=C(C)N(Cc2ccccc2)C(NCc2cccc(C(F)(F)F)c2)=N[C@H]1c1cccc(C(F)(F)F)c1`, the IC50 in test [5] is > 20 µM (inactive); with HEK293 [4], 13.6 µM (inactive). Further, the values for the EC50 with HEK293 [1], at Insulin-degrading enzyme [2] and on Insulin-degrading enzyme [3] were > 54.7 µM (inactive), > 54.7 µM (inactive) and > 6.08 µM (active), respectively. In the test with INS1, the AC50 is 5.53 µM (active).

In the case of `NC(=O)c1ccc(NC(=O)COC(=O)c2c3c(nc4ccccc24)/C(=C\c2ccc4c(c2)OCO4)CCC3)cc1`, the EC50 in the test on HEK293 [1] was > 54.7 µM (inactive); at Streptokinase A, > 150 µM (not active); at Insulin-degrading enzyme [2], > 54.7 µM (inactive); in test [6], 13.6 µM (active); on Insulin-degrading enzyme [3], > 54.7 µM (inactive); in the test on Streptococcus, 140 µM (active). The IC50 in the test on HEK293 [4] was > 89.2 µM (inactive).

As for `CCc1cc(Cn2nc(C(=O)O)cc2-c2ccccc2)on1`, the EC50 with HEK293 [1], at Insulin-degrading enzyme [2] and on Insulin-degrading enzyme [3] was > 54.7 µM (inactive) throughout. Further, the IC50 in the test with HEK293 [4] was > 89.3 µM (inactive).

On to `O=[N+]([O-])c1ccc(Nc2ccccc2O)c2nonc12`, for which the IC50 in the test “cells” was 5.81 µM (active). The EC50 is 28.2 µM (active) in [7], 24.4 µM (active) in [8], > 99 µM (inactive) in test [9] and > 99 µM (inactive) in [10].

`O=[N+]([O-])c1ccc(S(=O)(=O)N[N-][C+]2CCCCC2)cc1`: the EC50 was > 99 µM (inactive) in test [9] and 7.03 µM (active) in [10].
